Source: US12473295B2, “Substituted straight chain spiro derivatives” (Janssen Pharmaceutica NV, priority 2019, dated 2025)
Where a name gives a salt, the structure may show the parent alone. Read-outs that look alike come from different tables or passages of the source.

Tests used:
[1] = test system: MEIS1 mRNA; test: MEIS1 mRNA expression assay (Quantigene Singleplex) in MOLM14 cells; format: cell-based, human; settings: 48 hours incubation;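 note: MEIS1 transcript levels read by probe hybridization and normalized to RPL28 mRNA, with IC50 fitted to fold changes across a rising compound concentration series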
[2] = molecular target: hERG potassium channel (Homo sapiens (Human), UniProt Q12809); test: Effect on membrane potassium current IKr in hERG transfected CHO cells, Protocol 1 (QPatch); format: cell-based
hERG potassium channel, sequence (Q12809 whole entry): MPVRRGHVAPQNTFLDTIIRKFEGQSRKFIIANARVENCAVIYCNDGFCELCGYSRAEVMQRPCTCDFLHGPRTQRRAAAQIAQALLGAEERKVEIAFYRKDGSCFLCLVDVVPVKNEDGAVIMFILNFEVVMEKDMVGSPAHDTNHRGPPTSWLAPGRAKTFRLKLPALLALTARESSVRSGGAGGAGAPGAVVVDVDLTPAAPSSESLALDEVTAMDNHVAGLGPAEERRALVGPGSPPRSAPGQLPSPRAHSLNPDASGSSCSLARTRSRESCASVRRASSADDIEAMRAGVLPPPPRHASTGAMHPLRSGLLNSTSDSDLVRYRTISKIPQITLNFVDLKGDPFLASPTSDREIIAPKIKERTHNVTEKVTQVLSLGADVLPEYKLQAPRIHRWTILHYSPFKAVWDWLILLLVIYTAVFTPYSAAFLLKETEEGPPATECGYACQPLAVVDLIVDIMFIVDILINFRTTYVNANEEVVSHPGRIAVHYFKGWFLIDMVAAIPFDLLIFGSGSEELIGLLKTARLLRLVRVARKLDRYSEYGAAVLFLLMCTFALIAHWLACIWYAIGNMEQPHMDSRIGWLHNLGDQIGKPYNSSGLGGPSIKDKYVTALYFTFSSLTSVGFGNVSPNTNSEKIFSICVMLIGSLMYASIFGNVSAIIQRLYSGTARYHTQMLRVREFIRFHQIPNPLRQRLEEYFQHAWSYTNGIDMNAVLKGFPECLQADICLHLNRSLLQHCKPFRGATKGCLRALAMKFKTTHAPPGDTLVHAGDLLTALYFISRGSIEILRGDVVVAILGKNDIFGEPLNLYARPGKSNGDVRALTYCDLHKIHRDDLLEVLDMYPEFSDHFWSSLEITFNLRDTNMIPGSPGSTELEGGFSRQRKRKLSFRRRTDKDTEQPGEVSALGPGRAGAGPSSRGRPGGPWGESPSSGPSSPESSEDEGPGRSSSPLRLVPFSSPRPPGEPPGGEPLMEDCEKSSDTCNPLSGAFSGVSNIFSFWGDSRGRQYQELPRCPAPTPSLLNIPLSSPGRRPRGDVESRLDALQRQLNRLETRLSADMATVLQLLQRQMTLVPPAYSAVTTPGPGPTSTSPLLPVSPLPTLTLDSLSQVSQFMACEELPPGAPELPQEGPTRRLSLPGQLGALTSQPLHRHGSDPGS
Procedure: 8) Effect on the Membrane Potassium Current IKr in hERG Transfected Cell Lines
• CHO Chinese hamster ovary cell line • DMSO Dimethylsulfoxide • hERG human ether-á-go-go-related gene • IKr rapidly activating delayed-rectifier K^+ current Methods
Experiments were performed using CHO cells stably expressing the hERG potassium channel. Cells were grown at 37° C. and 5% CO2 in culture flasks in Ham's F12 Medium supplemented with 10% heat-inactivated fetal calf serum, hygromycin B (100 μg/ml) and geneticin (100 μg/ml). For use in the automated patch-clamp system QPatch (Sophion) cells were harvested to obtain cell suspension of single cells.
Solutions: The bath solution contained (in mM) 145 NaCl, 4 KCl, 10 glucose, 10 HEPES ((4-(2-hydroxyethyl)-1-piperazineethanesulfonic acid), 2 CaCl2 and 1 MgCl2 (pH 7.4 with NaOH). The pipette solution contained (in mM) 120 KCl, 10 EGTA (Ethylene glycol-bis(2-aminoethylether)-N,N,N′,N′-tetraacetic acid), 10 HEPES, 5.374 CaCl2 and 1.75 MgCl2 (pH 7.2 with KOH).
Patch-clamp experiments were performed in the voltage-clamp mode and whole-cell currents were recorded with an automated patch-clamp assay utilizing the QPatch system (Sophion). Current signals were amplified and digitized, stored and analyzed by using the QPatch assay software.
The holding potential was −80 mV. The hERG current (K^+-selective outward current) was determined as the maximal tail current at −40 mV after a 2 second depolarization to +60 mV. Pulse cycling rate was 15 s. A short pulse (90 ms) to −40 mV served as a baseline step to calculate the tail current amplitude. After establishing whole-cell configuration and a stability period, the solvent control (0.3% DMSO) was applied for 5 minutes followed by the test substance by four increasing concentrations of 3×10^−7 M, 3×10^−6 M, 10^−5 M and 3×10^−5 M. Each concentration of the test substance was applied twice. The effect of each concentration was determined after 5 min as an average current of 3 sequential voltage pulses. To determine the extent of block the residual current was compared with vehicle pre-treatment.
Concentration/response relations were calculated by non-linear least-squares fits to the individual data points. The half-maximal inhibiting concentration (IC50) was calculated by the fitting routine.

[3] = test system: OCI-AML3 cells; test: Proliferation assay (spheroid growth, 8 days), OCI-AML3; format: cell-based, human; settings: OCI-AML3, 8 days
Summary of the method: (§1)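 Spheroid size on day 8, taken as live-cell imaging confluence, served as readout after 8-day compound exposure (0.3% DMSO, 37 °C, 5% CO2) in round-bottom low-attachment wells. Seeding was 200 cells for MOLM14 and OCI-AML3, 300 for KO-52. IC50 came from % effect versus DMSO and reference baseline, fitted with variable slope.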

[4] = test system: KO-52 cells; test: Proliferation assay (spheroid growth, 8 days), KO-52 control cell line; format: cell-based, human; settings: read-out: spheroid assay_OneTime KO-52 IC50
Summary of the method: as §1

[5] = molecular target: menin/MLL (terbium chelate-labeled menin, FITC-MBM1 peptide) (Homo sapiens (Human), UniProt O00255); test: Menin/MLL homogenous time-resolved fluorescence (HTRF) assay; format: binding; settings: HTRF-30 min incubation IC50, 30 min incubation;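 note: IC50 from percent inhibition of HTRF signal, normalized between wells without competitor and wells with a saturating competitor that displaces FITC-MBM1 from His-tagged menin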
menin/MLL (terbium chelate-labeled menin, FITC-MBM1 peptide), sequence (O00255 other isoform, or with tags, fused parts or gaps): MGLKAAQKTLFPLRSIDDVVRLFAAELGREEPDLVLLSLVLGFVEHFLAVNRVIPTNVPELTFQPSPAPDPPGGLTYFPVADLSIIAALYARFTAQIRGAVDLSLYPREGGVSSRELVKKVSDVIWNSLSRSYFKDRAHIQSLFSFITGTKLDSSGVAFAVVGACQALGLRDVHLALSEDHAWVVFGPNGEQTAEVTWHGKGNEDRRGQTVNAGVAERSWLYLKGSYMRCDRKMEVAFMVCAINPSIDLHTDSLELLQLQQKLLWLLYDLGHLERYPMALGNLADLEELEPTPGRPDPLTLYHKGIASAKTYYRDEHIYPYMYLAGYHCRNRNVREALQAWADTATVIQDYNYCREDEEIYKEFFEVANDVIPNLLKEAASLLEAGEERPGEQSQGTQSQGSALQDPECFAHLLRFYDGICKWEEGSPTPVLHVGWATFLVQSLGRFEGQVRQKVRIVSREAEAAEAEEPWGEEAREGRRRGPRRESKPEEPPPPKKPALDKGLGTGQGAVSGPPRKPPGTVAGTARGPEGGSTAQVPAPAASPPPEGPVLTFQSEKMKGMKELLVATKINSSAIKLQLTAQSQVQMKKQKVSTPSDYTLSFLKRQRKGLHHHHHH

[6] = test system: MOLM14 cells; test: Proliferation assay (spheroid growth, 8 days), MOLM14; format: cell-based, human; settings: MOLM14, 8 days, read-out: spheroid assay_OneTime MOLM14 IC50;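 note: spheroid size read as confluence by live-cell imaging, compounds added at a range of concentrations with 0.3% DMSO, DMSO-treated wells = 0%, highest reference dose = low control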
[7] = test system: iCell Cardiomyocytes2; test: Ca2+-fluorescence assay in human pluripotent stem cell-derived cardiomyocytes (CTCM human), iCell Cardiomyocytes2; format: cell-based; parameters: key: Green: No concern; Yellow: Low concern; Red: High concern; Black: Very high concern due to arrhythmic events; settings: 30 min; for Color @ 0.1 μM (hazard score): iCell Cardiomyocytes2, 0.1 μM; for Color @ 0.1 μM (hazard score) / Color @ 1 μM (hazard score): range 0.1-30 μM; for Color @ 0.3 μM (hazard score): iCell Cardiomyocytes2, 0.3 μM; for Color @ 1 μM (hazard score): iCell Cardiomyocytes2, 1 μM; for Color @ 3 μM (hazard score): iCell Cardiomyocytes2, 3 μM; for Color @ 10 μM (hazard score): iCell Cardiomyocytes2, 10 μM; for Color @ 30 μM (hazard score): iCell Cardiomyocytes2, 30 μM
Procedure: 7) Cardio-Electrophysiological Effects of the Testing Compounds in Synchronously Beating Human Pluripotent Stem Cell-Derived Cardiomyocytes (hSC-CMs) Using a Ca^2+-Fluorescence Assay (CTCM Human)
Compounds were tested in the 96-well plates
Compounds were tested at 0.1 μM, 0.2 μM, 0.5 μM, 1 μM, 2.5 μM and 5 μM (n=4 per dose) on Cor.4U 9-Cardiomyocytes or on iCell® Cardiomyocytes2
Alternatively, compounds were tested at 0.1 μM, 0.3 μM; 1 μM, 3 μM, 10 μM and 30 μM (n=4 per dose) mostly on iCell® Cardiomyocytes2
Dimethylsulfoxide (DMSO). The solutions of the compound in DMSO or its solvent (final concentration of 0.1% DMSO; n=8)
Preparation of Test Article and Controls
Tested compounds were dissolved in DMSO at 1000-fold the intended concentrations. A compound “mother-plate” was made, containing the test compounds and positive and negative controls at 1000-fold the final concentrations. At the experiment day, these stock solutions were diluted with Tyrode (Sigma), supplemented with 10 mM HEPES (Gibco), to 2-fold the intended concentration (in round bottom compound plates). Final DMSO concentration in test solutions and vehicle control was 0.1%.
Second line hSC derived cardiomyocyte called iCell®, Cardiomyocytes2 were purchased from FUJIFILM Cellular Dynamics (USA). The experiments with test drugs are carried out 5 to 7 days after plating the cells onto the plate to have a living, beating monolayer of hiPSC-derived cardiomyocytes. The beating monolayer in 96-well-plates are normally taken from 2 Vials of frozen iCell) Cardiomyocytes2 (≈5 million cells/vial), which will be plated onto […] 96-well plates (≈50K/well).
Before Start of Experiment
At least one hour before the start of the experiments the normal cell medium was replaced with Tyrode solution with Calcium dye (see below).
Cal 520 dye (AAT Bioquest) was dissolved in 11 ml of Tyrode supplemented with 10 mM HEPES and warmed up to 37° C. before adding to the cells.
35 μl cell culture medium was removed from each well and replaced with 35 μl of pre-warmed Cal 520 dye solution and cell plate was incubated for 45 min at 37° C./5% CO2. Cells were incubated for 5 min at 37° C.
Spontaneous electrical activity is recorded, using Cal520™ (AAT Bioquest) calcium fluorescence-dye signaling. This dye integrates the total intracellular calcium activity over the whole well. A bottle of Cal520 dye (50 μg, MW: 1103/mol) is dissolved with 50 μl DMSO as a stock solution of 0.9 mM. 50 μL of the stock solution of the dye was added to 10 ml Tryodes solution to have dye concentration of 4.5 μM. Subsequently, 35 μl of this dye solution was added into each well, to have a final dye concentration of 1.58 μM. The current dye protocol on this CTCM human assay was established recently (Ivan Kopljar et al, Journal of Pharmacological and toxicological methods 2018. 91: 80-86; Lu et al., Tox Sci 2019. 170 (2): 345-356).
Fluorescent signals (Ca^2+ transient morphology) were measured using the Functional Drug Screen System (FDSS/μCell; Hamamatsu, Japan) and the recordings were subsequently analyzed off-line, using appropriate software e.g. Notocord.
The cell plate was loaded into the FDSS/μCell for a test run: Ca^2+ transients were measured for 4 minutes to check for synchronous beating of the cardiomyocytes in each well. All 96 wells were measured simultaneously (sampling interval: 0.06 s, short exposure time: 10 ms; excitation wavelength 480 nm; emission wavelength 540 nm; FDSS/μCell warmed to 37° C.).
During the compound addition step, 100 μl of the respective double-concentrated test solutions was pipetted into each well simultaneously.
Data were analyzed off-line using appropriate software e.g. Notocord-Hem (version 4.3).
The following parameters of the Ca^2′ transient morphology were measured: • beat rate (BR) • amplitude of the Ca^2+ transient (Amp), • CTD90: Ca^2+ transient duration at 90% (time to 90% of the initial base value). […]

Row | SMILES | IC50 ([1]; Homo sapiens, MOLM-14, 48 h) | IC50 [2] | IC50 ([3]; Homo sapiens, OCI-AML-3, […]) | IC50 ([4]; Homo sapiens, […]) | IC50 [5] | IC50 ([6]; Homo sapiens, MOLM-14, […]) | Color @ 0.1 μM (hazard score) [7] | Color @ 0.3 μM (hazard score) [7] | Color @ 1 μM (hazard score) [7] | Color @ 3 μM (hazard score) [7] | Color @ 10 μM (hazard score) [7] | Color @ 30 μM (hazard score) [7] | IC50 [1] | IC50 [3] | IC50 [4] | IC50 [6]
1 | CCN(C(=O)c1cc(F)ccc1Oc1nncnc1N1CCC2(C1)CN([C@H](CCCN(C)CC(=O)N(C)C)C(C)C)C2)C(C)C [Compound 23] | 0.15 µM | > 30.2 µM | 0.81 µM | 13.8 µM | 0.00022 µM | 0.17 µM |  |  |  |  |  |  |  |  |  | 
2 | CCN(C(=O)c1cc(F)ccc1Oc1nncnc1N1CCC2(C1)CN([C@H](CCCN(C)CCOC)C(C)C)C2)C(C)C [Compound 70a] |  |  |  |  |  |  | Green | Green | Green | Green | Green | yellow |  |  |  | 
3 | CCN(C(=O)c1cc(F)ccc1Oc1nncnc1N1CCC2(C1)CN(C(CCCO)C(C)C)C2)C(C)C (stereo not shown) [Compound 49, N-ethyl-5-fluoro-2-((5-(2-(6-hydroxy-2-methylhexan-3-yl)-2,6-diazaspiro[3.4]octan-6-yl)-1,2,4-triazin-6-yl)oxy)-N-isopropylbenzamide] |  | > 30.2 µM |  |  |  |  |  |  |  |  |  |  |  |  |  | 
4 | CCN(C(=O)c1cc(F)ccc1Oc1nncnc1N1CCC2(C1)CN([C@H](CCCNC)C(C)C)C2)C(C)C [Compound 398, (R)-N-ethyl-5-fluoro-N-isopropyl-2-((5-(2-(2-methyl-6-(methylamino)hexan-3-yl)-2,6-diazaspiro[3.4]octan-6-yl)-1,2,4-triazin-6-yl)oxy)benzamide] |  |  | 0.22 µM | > 15 µM |  | 0.064 µM | Green | Green | Green | Green | Green | Green |  |  |  | 
5 | CCN(C(=O)c1cc(F)ccc1Oc1nncnc1N1CCC2(C1)CN([C@H](CCCN(C)CCO)C(C)C)C2)C(C)C [Compound 286, (R)-N-ethyl-5-fluoro-2-((5-(2-(6-((2-hydroxyethyl)(methyl)amino)-2-methylhexan-3-yl)-2,6-diazaspiro[3.4]octan-6-yl)-1,2,4-triazin-6-yl)oxy)-N-isopropylbenzamide] |  |  |  |  |  |  | Green | Green | Green | Green | Green | Green | 0.096 µM | 0.29 µM | 22.9 µM | 0.076 µM
6 | CCN(CCC[C@H](C(C)C)N1CC2(CCN(c3ncnnc3Oc3ccc(F)cc3C(=O)N(CC)C(C)C)C2)C1)CCOC [Compound 71, (R)-N-ethyl-2-((5-(2-(6-(ethyl(2-methoxyethyl)amino)-2-methylhexan-3-yl)-2,6-diazaspiro[3.4]octan-6-yl)-1,2,4-triazin-6-yl)oxy)-5-fluoro-N-isopropylbenzamide] | 0.38 µM | > 30.2 µM | 1.47 µM | 12.8 µM |  | 0.56 µM |  |  |  |  |  |  |  |  |  | 
7 | CCN(C(=O)c1cc(F)ccc1Oc1nncnc1N1CCC2(C1)CN([C@H](CCCN(C)C(=O)OC)C(C)C)C2)C(C)C [Compound 22, methyl (R)-(4-(6-(6-(2-(ethyl(isopropyl)carbamoyl)-4-fluorophenoxy)-1,2,4-triazin-5-yl)-2,6-diazaspiro[3.4]octan-2-yl)-5-methylhexyl)(methyl)carbamate] | ~0.76 µM | 20.9 µM |  | 12.8 µM | 0.00179 µM | 0.36 µM |  |  |  |  |  |  |  |  |  | 
8 | CCN(C(=O)c1cc(F)ccc1Oc1nncnc1N1CCC2(C1)CN([C@H](CCN(C)CCOC)C(C)C)C2)C(C)C (single isomer, unassigned) [Compound 276, (*R)—N-ethyl-5-fluoro-N-isopropyl-2-((5-(2-(1-((2-methoxyethyl)(methyl)amino)-4-methylpentan-3-yl)-2,6-diazaspiro[3.4]octan-6-yl)-1,2,4-triazin-6-yl)oxy)benzamide] | 0.39 µM |  | 1.61 µM | > 15 µM | 0.0005 µM | 0.24 µM |  |  |  |  |  |  |  |  |  | 
9 | CCN(C(=O)c1cc(F)ccc1Oc1nncnc1N1CCC2(C1)CN(C(CCCN)C(C)C)C2)C(C)C (stereo not shown) [Compound 3, 2-((5-(2-(6-amino-2-methylhexan-3-yl)-2,6-diazaspiro[3.4]octan-6-yl)-1,2,4-triazin-6-yl)oxy)-N-ethyl-5-fluoro-N-isopropylbenzamide formate] | 0.095 µM |  | 0.31 µM | > 15 µM | 0.0001 µM | 0.042 µM |  |  |  |  |  |  |  |  |  | 
